3 compounds from ChEMBL document CHEMBL1201862, “PubChem BioAssay data set” (2004) can be followed below.

The source made the active and inactive calls.

For assay [1], the target named is Beta-2 adrenergic receptor (Homo sapiens, UniProt P07550). The experiment in a line: beta2AR agonists driving receptor internalization, dose response, cell-based, FAP fluorogen, flow cytometry, cherry pick 1 (AID 588763). The class given is functional. In general terms: A flow cytometer gives signals particle by particle.
Assay [2] is described as follows: Luminescence Cell-Based Dose Confirmation HTS to Identify Activators of 5'UTR Stem-Loop Driven Alpha-Synuclein mRNA Translation in H4 Neuroglioblastoma Cells. [Related pubchem assays: 1829 (Project Summary), 1814 (Primary HTS)]. The class given is functional.
Assay [3] is described as follows: Luminescence Cell-Based Dose Response HTS to Identify Activators of Luciferase Translation or Activity in H4 […] Cells. [Related pubchem assays: 1829 (Project Summary), 1814 (Primary HTS)]. The class given is functional.
Assay [4] concerns Streptococcus sp. 'group A'. Description: growth inhibition of control SK(-) GAS strain, dose response, counter-screen for streptokinase expression inhibitor project, luminescence, kanamycin, BacTiterGlo, confirmation (AID 1900). The class given is functional, organism-based. In general terms: The purpose of a counterscreen is to sort out artefacts and off-target activity.
A further assay addresses T1, Streptokinase A (Streptococcus pyogenes serotype M1, UniProt P10520).
T1 sequence (P10520 whole entry): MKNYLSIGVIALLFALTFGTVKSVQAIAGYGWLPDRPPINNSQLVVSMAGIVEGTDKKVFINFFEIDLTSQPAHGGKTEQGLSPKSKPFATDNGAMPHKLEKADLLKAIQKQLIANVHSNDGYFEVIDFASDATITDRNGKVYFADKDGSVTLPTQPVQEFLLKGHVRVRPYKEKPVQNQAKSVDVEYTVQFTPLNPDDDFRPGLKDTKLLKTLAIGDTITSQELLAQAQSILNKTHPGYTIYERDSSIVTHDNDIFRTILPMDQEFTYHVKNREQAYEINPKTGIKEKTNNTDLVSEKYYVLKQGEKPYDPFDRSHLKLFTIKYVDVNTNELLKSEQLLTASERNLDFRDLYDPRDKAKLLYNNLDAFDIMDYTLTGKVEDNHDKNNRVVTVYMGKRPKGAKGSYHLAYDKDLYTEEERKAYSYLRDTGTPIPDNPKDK
Description: S. pyogenes streptokinase expression inhibitors, potency, dose response, plasminogen activation absorbance, OD405 (AID 1914).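 Also: secreted streptokinase activity via plasminogen activation per viability signal from cell pellet.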 The class given is functional, Streptococcus pyogenes M1 GAS.

The subject of the next assay is Streptococcus. Description: Group A Streptococcus viability loss, dose response, counter-screen for streptokinase expression inhibitor project, luminescence, BacTiterGlo (AID 1915).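 Also: potency for reduction of bacterial viability or growth.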 The format is functional, organism-based.
In assay [5] the test system is A-375. The experiment in a line: MITF: Counter assay: A375 proliferation Measured in Cell-Based System Using Plate Reader - 2084-03_Inhibitor_Dose_DryPowder_Activity. [Related pubchem assays (depositor defined):AID488944]. The format is functional. Particulars: Homo sapiens.
Assay [6] has as its system A-375. The experiment in a line: A375 melanoma cell viability reduction, dose response, counter-screen for MITF modulator project, cherry-pick samples, set 2 (AID 540335). The class given is functional, cell-based. Particulars: Homo sapiens.
In assay [7] the test system is BJ. The experiment in a line: cytotoxicity toward BJ-TERT fibroblasts, dose response, cell-based, RAS-independent, luminescence (AID 1933). The conditions noted are these: Homo sapiens. The format is functional.
In the next assay the test system is H4. The experiment in a line: Luminescence Cell-Based Dose Response HTS to Identify Activators of 5'UTR Stem-Loop Driven Prion Protein mRNA Translation in H4 Neuroglioblastoma Cells. [Related pubchem assays: 1829 (Project Summary), 1814 (Primary HTS)]. The format is functional. The conditions noted are these: Homo sapiens.
For assay [8], the target named is T2, Voltage-gated N-type calcium channel alpha-1B subunit/Amyloid beta A4 precursor protein-binding family A member 1 (Homo sapiens, UniProt Q00975+Q02410). The format is protein assay.
Assay [9] has as its target T3, Heat shock factor protein 1 (Mus musculus, UniProt P38532).
T3 sequence (P38532 whole entry): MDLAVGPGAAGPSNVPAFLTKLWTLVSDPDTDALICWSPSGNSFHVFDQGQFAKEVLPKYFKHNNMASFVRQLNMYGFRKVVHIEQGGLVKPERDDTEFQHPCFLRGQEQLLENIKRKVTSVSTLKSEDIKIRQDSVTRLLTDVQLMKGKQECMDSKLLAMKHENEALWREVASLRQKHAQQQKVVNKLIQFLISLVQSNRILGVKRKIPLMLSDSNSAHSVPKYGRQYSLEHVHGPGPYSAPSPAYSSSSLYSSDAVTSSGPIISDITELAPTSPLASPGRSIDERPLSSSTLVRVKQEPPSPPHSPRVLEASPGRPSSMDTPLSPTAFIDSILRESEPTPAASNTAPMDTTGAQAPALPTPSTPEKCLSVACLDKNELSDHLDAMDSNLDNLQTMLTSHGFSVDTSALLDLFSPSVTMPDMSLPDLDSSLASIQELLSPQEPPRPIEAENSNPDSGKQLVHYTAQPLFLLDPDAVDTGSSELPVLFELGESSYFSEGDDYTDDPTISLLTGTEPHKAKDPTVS
The experiment in a line: inhibition of MG132-induced HSE-luciferase signal, confirmation, cell-based, NIH3T3, luminescence, dose retest (AID 2382).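 Also: NIH3T3 fibroblasts with HSF1-driven luciferase reporter stressed by proteasome inhibitor MG132; luminescence from HSF1-driven luciferase expression after 8 hours of MG132 stress.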 The format is functional.

For assay [10], the system named is BJ. Description: cells. The format is functional, cell-based. The conditions noted are these: Homo sapiens.
The target of assay [11] is Luciferin 4-monooxygenase (Photinus pyralis, UniProt P08659). The experiment in a line: firefly luciferase enzyme inhibitors, dose response, biochemical, luminescence (AID 1891).
Assay [12] can be described thus: Luminescence Cell-Based Dose Confirmation HTS to Identify Inhibitors of Platelet Dense Granule Release. [Related pubchem assays: 1663 (Primary HTS), 1678 (Summary of Project)]. The format is functional.
Assay [13] concerns the target T2, Voltage-gated N-type calcium channel alpha-1B subunit/Amyloid beta A4 precursor protein-binding family A member 1. The format is protein assay. This is another data set of the same source.
Assay [14] addresses T4, Kappa-type opioid receptor (Homo sapiens, UniProt P41145). The class given is functional.
For a further assay, the target named is Beta-galactosidase (Escherichia coli, UniProt Q8VNN2). The class given is functional.
In assay [15] the target is T5, Sphingosine 1-phosphate receptor 4 (Homo sapiens, UniProt O95977).
T5 sequence (O95977 whole entry): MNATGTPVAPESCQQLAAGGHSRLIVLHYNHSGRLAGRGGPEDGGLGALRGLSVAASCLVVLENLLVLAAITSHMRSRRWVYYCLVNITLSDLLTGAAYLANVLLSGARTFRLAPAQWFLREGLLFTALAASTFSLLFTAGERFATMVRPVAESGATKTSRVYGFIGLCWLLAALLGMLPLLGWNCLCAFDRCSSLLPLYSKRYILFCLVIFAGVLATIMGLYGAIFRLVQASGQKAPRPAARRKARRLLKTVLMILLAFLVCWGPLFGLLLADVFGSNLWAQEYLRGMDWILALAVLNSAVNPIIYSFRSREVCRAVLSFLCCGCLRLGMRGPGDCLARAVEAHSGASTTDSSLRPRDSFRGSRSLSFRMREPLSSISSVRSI
The experiment in a line: Fluorescence dose response cell-based high throughput screening assay for antagonists of the Sphingosine 1-Phosphate Receptor 4 (S1P4). [Related pubchem assays: 1524 (Confirmation in triplicates.), 1510 (Primary screen.)]. The class given is functional.

The test system of assay [16] is BJ. The experiment in a line: cytotoxicity toward BJ-TERT-LT-ST fibroblasts, dose response, cell-based, RAS-independent, luminescence (AID 1935).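 Also: BJ fibroblasts immortalized with TERT plus LT and ST oncogenes.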 The format is functional. The conditions noted are these: Homo sapiens.
Assay [17] addresses T4, Kappa-type opioid receptor. The format is functional. This is another data set of the same source.
Assay [18] is described as follows: cytotoxicity toward DRD oncogenic fibroblasts, dose response, cell-based, non-viral oncogenic, luminescence (AID 1934). The class given is functional. The conditions noted are these: Homo sapiens.
The target in assay [19] is Sphingosine 1-phosphate receptor 1 (Homo sapiens, UniProt P21453). The class given is functional.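 Also: Tango beta-arrestin reporter U2OS cells stimulated with S1P near its EC80; inhibitor potency meaning antagonism of receptor activation by the natural agonist.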
The target of assay [20] is Induced myeloid leukemia cell differentiation protein Mcl-1 (Homo sapiens, UniProt Q07820). The class given is functional.
The target of assay [21] is Glucose-6-phosphate 1-dehydrogenase (Homo sapiens, UniProt P11413). The experiment in a line: human G6PD enzyme inhibitors, dose response, selectivity assay for P. falciparum G6PD inhibitor project, biochemical, fluorescence (AID 504792). The class given is functional.
Assay [22] concerns the target DNA dC->dU-editing enzyme APOBEC-3G (Homo sapiens, UniProt Q9HC16). The experiment in a line: Dose Response confirmation of small molecule APOBEC3G DNA Deaminase Inhibitors via a fluorescence-based single-stranded DNA deaminase assay. [Related pubchem assays (depositor defined):AID493012, AID493028]. The format is functional.
Assay [23] can be described thus: cytotoxicity in HEK-293T cells, dose response, cytotoxicity control for TCR NF-kB inhibitor project, luminescence, T-cell screen hits (AID 489026).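 Also: cells exposed to compound about 14 hours before the viability readout.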 The class given is functional, cell-based.
A further assay deals with CHO. Description: cytotoxicity in TLR9-MyD88 CHO cells, dose response, cytotoxicity control for TLR9-MyD88 binding inhibitor project, cell-based, luminescence (AID 588339).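 Also: CHO cells stably coexpressing TLR9 and MyD88 fusions from primary screen; compound exposure lasted 48 hours before viability readout.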 The format is functional, hamster. Particulars: Cricetulus griseus.
Assay [24] addresses Heat shock protein HSP 90-alpha (Homo sapiens, UniProt P07900). The format is functional, organism-based.
For a further assay, the system named is Vero. The experiment in a line: Vero cell cytotoxicity, cytotoxicity control for flavivirus capping enzyme inhibitors (AID 588742). The conditions noted are these: Chlorocebus sabaeus. The class given is functional.
Assay [25] concerns BJ. Description: cytotoxicity toward Ras-transformed BJeLR fibroblasts, dose response, cell-based, alamar blue fluorescence, cherrypicked samples (AID 2631).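 Also: confirmatory dose-response assay in RAS-dependent BJ fibroblasts engineered with TERT, LT and ST, with cytotoxicity read by fluorescence.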 The class given is functional. The conditions noted are these: Homo sapiens.
A further assay deals with Beta Lactamase (Pseudomonas aeruginosa, UniProt Q932Y6). The experiment in a line: beta-lactamase reporter inhibitor potency, dose response, artefact control for TLR9-MyD88 binding inhibitor project, BLA reporter cells, FRET fluorescence (AID 588341).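 Also: cell based assay in CHO-K1 cells stably expressing beta-lactamase.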 The class given is cell-based.
A further assay deals with Beta-arrestin-1 (Homo sapiens, UniProt P49407). Description: inhibitors of arrestin peptide binding to AP2, dose response, biochemical, cherry pick 1, beta2-adaptin appendage, flow cytometry (AID 588783). The class given is functional.
The next assay relates to INS1. Description: beta cell apoptosis inhibitors, cytokine rescue, dose response, luminescence, retest (AID 449756).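 Also: cell death triggered by IL-1 beta plus TNF-alpha plus IFN-gamma mixture; protective hits raise ATP signal compared with cytokine alone wells.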 The format is functional, cell-based. Particulars: Rattus norvegicus.
For another assay, the target named is Genome polyprotein (dengue virus type 2, UniProt P29990). Description: Dengue-2 NS5 methyltransferase inhibitors, primary screen, biochemical, confirmation dose response (AID 588689). The format is functional.

T4 sequence (P41145 whole entry): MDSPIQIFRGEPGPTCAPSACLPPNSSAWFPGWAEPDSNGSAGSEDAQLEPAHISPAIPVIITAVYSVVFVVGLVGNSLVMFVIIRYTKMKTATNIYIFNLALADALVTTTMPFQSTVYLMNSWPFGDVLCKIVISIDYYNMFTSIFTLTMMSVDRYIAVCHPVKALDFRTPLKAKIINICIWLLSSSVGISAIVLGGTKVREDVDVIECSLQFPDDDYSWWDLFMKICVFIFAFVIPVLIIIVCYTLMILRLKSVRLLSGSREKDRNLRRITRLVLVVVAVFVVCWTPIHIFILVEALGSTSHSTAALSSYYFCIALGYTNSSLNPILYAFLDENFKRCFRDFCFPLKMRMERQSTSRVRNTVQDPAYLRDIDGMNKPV
T2 sequence (Q00975 whole entry): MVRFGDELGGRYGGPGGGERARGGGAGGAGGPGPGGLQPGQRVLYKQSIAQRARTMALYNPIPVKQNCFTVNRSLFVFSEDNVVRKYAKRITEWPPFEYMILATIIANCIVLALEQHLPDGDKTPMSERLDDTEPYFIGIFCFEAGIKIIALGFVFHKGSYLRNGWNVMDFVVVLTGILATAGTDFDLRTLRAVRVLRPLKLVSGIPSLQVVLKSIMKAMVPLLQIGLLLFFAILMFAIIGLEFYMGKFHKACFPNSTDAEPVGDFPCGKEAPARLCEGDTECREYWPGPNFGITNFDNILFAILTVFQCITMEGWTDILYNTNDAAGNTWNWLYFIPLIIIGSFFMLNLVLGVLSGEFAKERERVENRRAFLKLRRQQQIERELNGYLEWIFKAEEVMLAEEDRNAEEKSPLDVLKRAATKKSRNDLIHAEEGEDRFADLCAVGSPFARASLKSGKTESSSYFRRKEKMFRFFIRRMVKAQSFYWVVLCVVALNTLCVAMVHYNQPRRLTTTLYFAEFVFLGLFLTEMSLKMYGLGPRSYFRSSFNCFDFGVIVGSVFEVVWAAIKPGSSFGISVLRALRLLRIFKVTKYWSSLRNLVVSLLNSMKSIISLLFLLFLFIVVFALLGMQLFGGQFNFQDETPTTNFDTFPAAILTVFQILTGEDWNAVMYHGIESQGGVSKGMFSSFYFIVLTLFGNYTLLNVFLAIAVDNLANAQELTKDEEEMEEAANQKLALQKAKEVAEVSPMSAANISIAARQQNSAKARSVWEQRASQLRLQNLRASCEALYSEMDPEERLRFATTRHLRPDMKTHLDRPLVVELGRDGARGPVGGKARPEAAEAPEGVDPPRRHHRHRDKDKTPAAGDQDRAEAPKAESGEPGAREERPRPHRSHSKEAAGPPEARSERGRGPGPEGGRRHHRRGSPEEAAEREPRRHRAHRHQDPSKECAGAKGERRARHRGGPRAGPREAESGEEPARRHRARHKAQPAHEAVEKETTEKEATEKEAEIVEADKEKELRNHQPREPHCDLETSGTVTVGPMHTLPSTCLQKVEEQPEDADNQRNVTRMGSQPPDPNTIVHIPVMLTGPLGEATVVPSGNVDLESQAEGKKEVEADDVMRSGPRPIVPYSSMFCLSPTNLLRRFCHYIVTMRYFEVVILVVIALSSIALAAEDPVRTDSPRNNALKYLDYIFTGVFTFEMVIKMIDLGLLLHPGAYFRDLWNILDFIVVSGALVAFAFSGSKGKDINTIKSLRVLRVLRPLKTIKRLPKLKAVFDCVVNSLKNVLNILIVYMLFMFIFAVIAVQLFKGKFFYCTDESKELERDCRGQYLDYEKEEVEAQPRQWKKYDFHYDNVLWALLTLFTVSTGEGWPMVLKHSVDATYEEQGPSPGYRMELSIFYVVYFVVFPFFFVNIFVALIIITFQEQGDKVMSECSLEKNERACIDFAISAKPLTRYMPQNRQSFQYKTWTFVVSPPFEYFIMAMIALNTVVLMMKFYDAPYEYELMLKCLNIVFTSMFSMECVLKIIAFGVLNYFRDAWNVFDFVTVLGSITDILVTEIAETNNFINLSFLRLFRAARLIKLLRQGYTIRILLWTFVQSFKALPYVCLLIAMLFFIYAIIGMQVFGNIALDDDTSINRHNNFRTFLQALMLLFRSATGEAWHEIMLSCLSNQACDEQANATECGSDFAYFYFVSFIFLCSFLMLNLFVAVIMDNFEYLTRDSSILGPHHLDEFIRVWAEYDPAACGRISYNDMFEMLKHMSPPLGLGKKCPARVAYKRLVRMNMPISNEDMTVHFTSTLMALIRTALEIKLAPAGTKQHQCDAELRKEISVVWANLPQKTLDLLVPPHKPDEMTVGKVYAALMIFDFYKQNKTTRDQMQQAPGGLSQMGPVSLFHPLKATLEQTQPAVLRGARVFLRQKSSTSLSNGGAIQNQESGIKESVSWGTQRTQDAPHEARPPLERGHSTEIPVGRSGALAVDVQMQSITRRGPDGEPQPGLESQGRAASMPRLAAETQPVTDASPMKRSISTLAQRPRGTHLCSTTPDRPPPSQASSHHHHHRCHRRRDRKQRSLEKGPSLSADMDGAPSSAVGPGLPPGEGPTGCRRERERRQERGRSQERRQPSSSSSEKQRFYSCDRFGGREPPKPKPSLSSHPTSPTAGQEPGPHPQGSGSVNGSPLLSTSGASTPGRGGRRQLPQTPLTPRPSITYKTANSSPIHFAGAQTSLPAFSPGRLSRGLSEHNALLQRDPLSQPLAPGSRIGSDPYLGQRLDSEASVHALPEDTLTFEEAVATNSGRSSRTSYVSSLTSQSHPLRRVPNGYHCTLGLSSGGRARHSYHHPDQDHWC
T2 sequence (Q02410 whole entry): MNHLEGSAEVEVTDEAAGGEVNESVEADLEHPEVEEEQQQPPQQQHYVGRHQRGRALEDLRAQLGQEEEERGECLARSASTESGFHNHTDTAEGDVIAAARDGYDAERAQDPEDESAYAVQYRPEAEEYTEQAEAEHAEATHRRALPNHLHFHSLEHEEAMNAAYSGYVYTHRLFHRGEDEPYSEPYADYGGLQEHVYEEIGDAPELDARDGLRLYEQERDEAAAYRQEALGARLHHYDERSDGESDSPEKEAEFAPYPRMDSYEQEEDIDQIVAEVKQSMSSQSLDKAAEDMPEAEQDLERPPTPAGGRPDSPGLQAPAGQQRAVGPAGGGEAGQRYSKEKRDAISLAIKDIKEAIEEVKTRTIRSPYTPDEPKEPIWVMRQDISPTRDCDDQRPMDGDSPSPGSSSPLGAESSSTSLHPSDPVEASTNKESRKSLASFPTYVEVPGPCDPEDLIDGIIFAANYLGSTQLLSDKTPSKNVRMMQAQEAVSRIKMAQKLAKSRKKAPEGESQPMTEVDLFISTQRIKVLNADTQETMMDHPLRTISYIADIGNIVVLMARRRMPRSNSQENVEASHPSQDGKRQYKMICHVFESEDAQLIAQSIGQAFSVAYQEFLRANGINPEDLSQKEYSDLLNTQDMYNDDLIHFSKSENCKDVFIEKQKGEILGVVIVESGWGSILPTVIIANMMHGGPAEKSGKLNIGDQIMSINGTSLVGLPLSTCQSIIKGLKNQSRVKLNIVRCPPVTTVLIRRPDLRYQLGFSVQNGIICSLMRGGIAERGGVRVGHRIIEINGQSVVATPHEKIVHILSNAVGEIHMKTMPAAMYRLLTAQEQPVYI
Beta-galactosidase, sequence (Q8VNN2 whole entry): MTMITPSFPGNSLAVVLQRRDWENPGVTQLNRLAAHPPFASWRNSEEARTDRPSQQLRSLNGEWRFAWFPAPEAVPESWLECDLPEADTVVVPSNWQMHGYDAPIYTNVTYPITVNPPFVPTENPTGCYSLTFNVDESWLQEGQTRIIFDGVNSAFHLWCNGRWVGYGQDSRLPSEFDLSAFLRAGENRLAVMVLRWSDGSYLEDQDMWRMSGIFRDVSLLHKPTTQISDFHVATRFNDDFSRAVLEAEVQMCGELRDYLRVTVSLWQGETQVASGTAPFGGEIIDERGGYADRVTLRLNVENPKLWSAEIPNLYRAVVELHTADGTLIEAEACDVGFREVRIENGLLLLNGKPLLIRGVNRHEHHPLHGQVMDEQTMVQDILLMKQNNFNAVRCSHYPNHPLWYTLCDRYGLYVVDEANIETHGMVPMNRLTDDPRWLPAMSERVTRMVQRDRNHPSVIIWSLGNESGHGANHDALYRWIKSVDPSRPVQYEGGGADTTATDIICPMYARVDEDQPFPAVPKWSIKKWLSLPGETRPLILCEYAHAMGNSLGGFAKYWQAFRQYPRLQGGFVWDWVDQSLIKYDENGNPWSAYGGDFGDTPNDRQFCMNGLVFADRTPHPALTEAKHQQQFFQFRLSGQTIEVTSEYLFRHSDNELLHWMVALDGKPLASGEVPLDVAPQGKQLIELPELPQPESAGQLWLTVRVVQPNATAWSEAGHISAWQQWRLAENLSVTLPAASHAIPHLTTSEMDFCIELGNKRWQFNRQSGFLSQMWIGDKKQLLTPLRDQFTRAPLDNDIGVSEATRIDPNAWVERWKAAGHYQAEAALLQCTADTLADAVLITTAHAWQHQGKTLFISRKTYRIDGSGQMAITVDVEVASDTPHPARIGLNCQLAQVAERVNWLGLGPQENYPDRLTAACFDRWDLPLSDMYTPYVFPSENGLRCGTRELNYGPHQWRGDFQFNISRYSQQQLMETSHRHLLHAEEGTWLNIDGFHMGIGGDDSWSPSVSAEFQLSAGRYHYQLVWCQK
Beta-arrestin-1, sequence (P49407 whole entry): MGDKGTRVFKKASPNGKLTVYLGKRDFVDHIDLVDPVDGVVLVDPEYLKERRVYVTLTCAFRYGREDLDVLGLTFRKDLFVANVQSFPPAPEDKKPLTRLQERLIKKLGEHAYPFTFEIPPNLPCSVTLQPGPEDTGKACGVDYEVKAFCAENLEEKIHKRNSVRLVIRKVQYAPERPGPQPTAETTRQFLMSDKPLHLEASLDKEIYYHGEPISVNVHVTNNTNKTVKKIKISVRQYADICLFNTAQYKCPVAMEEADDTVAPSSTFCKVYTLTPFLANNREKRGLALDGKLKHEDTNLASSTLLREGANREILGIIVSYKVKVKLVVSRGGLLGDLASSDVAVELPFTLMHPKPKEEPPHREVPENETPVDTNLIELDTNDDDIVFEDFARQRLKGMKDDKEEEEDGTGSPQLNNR

On to `Cc1ccc(CNC(=O)CCCCn2c(=O)[nH]c3ccsc3c2=O)cc1`, for which the EC50 (as a rule, the concentration at which the effect is half-maximal) in assay [1] was 10.7 µM (inactive).
As for `Nc1nc2ccccc2n1/N=C/c1ccc(-c2ccccc2)o1`, the EC50 in assay [2] is 24.4 µM (active); in [3], 51.3 µM (active); in assay [4] it was 5.7 µM (active); on Streptokinase A it was > 150 µM (not active); with Streptococcus, > 150 µM (not active). Also, the AC50 in the assay with A-375 [5] and in the assay on A-375 [6] was > 35 µM (active) each time.
`COc1ccc(OC)c2c1C(=O)C(Cl)=C(Cl)C2=O`: the EC50 in [2] was > 120 µM (not active); in assay [3], > 60 µM (not active); in the assay with BJ [7], 3.94 µM (inconclusive); with H4, > 120 µM (not active); in assay [9], 4.56 µM (active); with BJ [10], 5.3 µM (active). For the same compound, the EC50 in assay [11] is > 112 µM (not active); in assay [12] it was 11.7 µM (active); at Beta-galactosidase it was > 31.5 µM (inactive); in the assay with BJ [16], 5.05 µM (inconclusive); in assay [18], 5.7 µM (inconclusive); in the assay with BJ [25], 4.49 µM (active). For the same compound, the IC50 (commonly the point on the concentration scale where inhibition reaches its midpoint) in assay [8] is 9.53 µM (active); in assay [13], 0.331 µM (active); in [14], 11.8 µM (active); in [15], 2.02 µM (active); in [17] it was over 32 µM; in [19], 16.8 µM (not active). The IC50 is 24.8 µM (active) in assay [20]; 27 µM (inactive) in [21]; 7.17 µM (active) in assay [22]; 48.3 µM (inactive) in assay [23]; 0.629 µM (active) in the assay with CHO; 6.76 µM (active) on Beta Lactamase. The results for the IC50 at Beta-arrestin-1 and on Genome polyprotein were 1.64 µM (active) and 5.23 µM (active), respectively. The AC50 – broadly, the midpoint of the concentration-response curve, whichever way the signal moves – in [24] was 3.03 µM (active); in the assay on INS1, 6.17 µM (active). Further, in the assay with Vero, the CC50 (commonly the concentration giving 50% cytotoxicity) was 14.1 µM (active).
